Assay results: patent US8008354B2, “Death receptor sensitizing compounds and methods of use therefor” (Burnham Institute for Medical Research, priority 2006, dated 2011)

What was measured:
[1] = test system: E1A-transformed wild-type (WT) and caspase 8-/- MEFs; assay: MTS viability of wild-type and caspase 8-/- MEFs in suspension conditions; format: cell-based; conditions: ten hours
Protocol: FIG. 15. 5809354 sensitizes cells to anoikis through a caspase 8 dependent mechanism. (A) PPC-1 cells (5×10^4) were cultured under suspension conditions overnight and then treated with 5809354 in the presence or absence of the pan-caspase inhibitor z-VAD-fink (100 μM). Thirty hours after incubation, anoikis was determined by flow cytometry to detect cell surface annexin V expression and PI uptake. Data represents the mean±SEM percent of viable cells or colonies compared to untreated controls. (B) PPC-1 cells (5×10^4) were cultured in suspension conditions overnight and then treated with 5809354 (60 μM). At increasing times after treatment, caspase activation was detected with FITC-labeled peptides that bind preferentially and irreversibly to caspase 3/7, 8, or 9. Caspase activation was monitored by flow cytometry to quantify the percentage of fluorescently labeled cells. […] At increasing times after incubation, total cellular protein was isolated and analyzed by SDS-PAGE immunoblotting using anti-caspase 8 and anti-actin antibodies. * indicates cleaved caspase 8. […] Thirty hours after incubation, apoptosis was measured by cell surface annexin V expression and PI uptake. […] Ten hours after incubation, cell viability was measured using the MTS assay. […] EGFP expression and nuclear morphology were analyzed by fluorescence microscopy. […]

[2] = test system: PPC-1, OVCAR-3, T47D, MDA-MB-468 and DU 145 cells; assay: MTS viability with CH-11 after FLIP siRNA transfection; format: cell-based; conditions: PPC-1 cells transfected with FLIP siRNA 10 nM
Protocol: FIG. 8. Decreases in FLIP by compound 5809354 are functionally important. (A) PPC-1, OVCAR-3, T47D, and DU 145 cells (2×10^5) were seeded into 35 mm plates and transfected with double-stranded siRNA targeting FLIP (f), control ds RNA (c), or mock transfected with buffer alone (m). At 24 hours after transfection, cells were treated with CH-11 (100 ng/mL) or buffer control. Cell viability was measured by an MTS assay and expressed as a percentage of untreated control cells (mean+SD; n=3). (B) Levels of FLIP protein were measured by immunoblotting. (C) PPC-1 cells (2×10^5) were seeded into 35 mm plates and transfected with siRNAs (10 nM) targeting FLIP or luciferase as a control (CNTRL). At 24 hours after transfection, cells were treated with increasing concentrations of 5809354 with or without CH-11 anti-FAS antibody (100 ng/mL) for an additional 24 hours. Cell viability was measured by an MTS assay, and expressed as a percentage of control untreated cells (mean+SD; n=3).
Transfection of siRNA oligonucleotides. […]
To test the functional importance of decreases in FLIP by 5809354, it was determined whether knocking down FLIP could recapitulate the activity of the molecule and abrogate 5809354's ability to sensitize cells to CH-11. […]

4-(4-chloro-2-methylphenoxy)-N-hydroxybutanamide [compound 5809354]
anoikis of caspase 8-deficient MEFs compared to wild-type [1]: resistant | enhancement of CH-11-mediated killing in the presence of FLIP siRNA [2]: the longer enhanced CH-11-mediated killing
